Test results reported in US5411983A, “Certain hyrdoxy-phosphinyl-oxy-phenylmethyl-imidazolium hydroxide inner salts as PAF antagonists” (American Cyanamid Company, priority 1993, dated 1995).
pKi: −log10 of the molar value. Where a name gives a salt, the structure may show the parent alone.

Key:
[1] = target: T1, PAF receptor (Oryctolagus cuniculus, UniProt G1TEI7); assay: Inhibition of PAF induced platelet aggregation in rabbit platelet rich plasma (PRP); type: cell-based, rabbit (male New Zealand White); design: immediately centrifuged at 800 rpm for 10 minutes at room temperature to recover the platelet rich plasma (PRP); endogenous in cells; host or cells: rabbit platelets in platelet rich plasma (male New Zealand White rabbits); details: for IC50: IC50 (M) PRP, inhibition of PAF-induced platelet aggregation, rabbit platelet rich plasma
T1 sequence (G1TEI7 1-342): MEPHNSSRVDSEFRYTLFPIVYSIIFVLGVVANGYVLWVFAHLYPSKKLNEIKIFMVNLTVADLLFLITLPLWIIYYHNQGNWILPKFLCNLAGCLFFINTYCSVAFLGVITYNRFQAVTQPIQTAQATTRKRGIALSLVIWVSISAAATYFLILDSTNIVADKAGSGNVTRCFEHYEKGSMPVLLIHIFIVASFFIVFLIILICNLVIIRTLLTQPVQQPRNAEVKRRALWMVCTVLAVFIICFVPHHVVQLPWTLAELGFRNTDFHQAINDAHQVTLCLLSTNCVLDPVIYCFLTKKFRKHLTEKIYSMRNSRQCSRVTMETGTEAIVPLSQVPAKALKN
Experimental: (§1) Platelet activating factor (PAF) compounds were evaluated as PAF receptor antagonists in vitro by measuring inhibition of PAF induced platelet aggregation. Platelet aggregation was measured by a modification of the method of A. Wissner, et. al., J. Med. Chem., 27, 1174, 1984.
(§2) Approximately 120-240 ml of blood were collected by cardiac puncture from unanesthetized male New Zealand White rabbits (Whaley's Summit View Farms, Belvedere, N.J.) with the use of 3.2% sodium citrate anticoagulant (1 part of citrate/10 parts of blood). All syringes and pipets were plastic. The blood was gently mixed and immediately centrifuged at 800 rpm for 10 minutes at room temperature to recover the platelet rich plasma (PRP). Platelet poor plasma (PPP) was prepared by centrifuging PRP at 2800 rpm for 10 minutes at room temperature.
(§3) Dilutions (1:3000) Of PRP in Isoton diluent were made and platelet counts were determined on a Coulter Thrombocounter which was standardized with platelet reference standards (Interscience Platelet Control, Portland, Oreg.). PRP platelet counts were adjusted to 500,000 platelets/μl by the addition of PPP.
(§4) L-PAF was obtained from Calbiochem. A stock solution of 1-2 E-3M was prepared in 10% ethanol in water and serial working dilutions were made using phosphate buffered saline (PBS). 1-2 E-3M stock solutions of test compounds were prepared in 100% methanol and serially diluted in PBS. All solutions were made up in plastic tubes, stored on ice and protected from heat and light. Solutions were prepared fresh or frozen at -20° C. and used within 48 hours.
(§5) Incubation mixtures consisted of 400 μl PRP, 50 μl of PBS diluent or test compound and 50 μl of PAF agonist. More specifically, 400 μl of PRP was stabilized in a cuvette for 1-2 minutes at 37° C. in the aggregometer to achieve a stable baseline, then 50 μl of PBS or test compound, was added and incubated for 5 minutes before addition of the challenge concentration of PAF ([…], as determined from the dose response curve for PAF for that experiment). Aggregation was monitored for 5 minutes. Samples containing test compound or diluent were run simultaneously for comparison. Test compounds were initially evaluated at a screening concentration of 1E-5M. Those producing ≥ 50% inhibition of the magnitude of aggregation were then reevaluated in a dose response fashion (final concentrations 1E-7M to 5E-5M) and IC50 values were determined. Ki values were also calculated in some cases from [formula] where Ki =inhibitory constant
(§6) IC50 =molar concentration of test compound which gives 50% inhibition
(§7) [PAF]=molar concentration of PAF used as challenges
(§8) EC50 =molar concentration of PAF which gives 50% of maximal aggregation.
(§9) The recording equipment consisted of single or dual channel Chronolog aggregometers connected to dual channel 10 MV full scale deflection Omniscribe chart recorders (Houston Instruments). […] The bead suspension was used to set the 0% light transmission mark and clear water was used to set the 100% light transmission mark. These limits defined a full scale deflection. The aggregation traces were analyzed by a digitizing method (C. Kohler and B. Zoltan, J. Pharm. Methods, 12, 113, 1984) with x, y coordinate data stored in a computer file. A suitable program computed parameters of interest such as the magnitude of aggregation.

[2] = system: PAF induced vascular permeability change in mouse skin; assay: Inhibition of PAF induced vascular permeability change in mouse skin; type: in vivo, mouse (Hilltop ICR); details: ip, 0.5 h, test compound i.p., PAF i.d., read-out: Inhibition of Vascular Permeability Lesion (ED50 mg/kg)
Experimental: Inhibition of PAF Induced Vascular Permeability Change in Mouse Skin
The rationale for this test is similar to the coinjection test in guinea pigs; however, the test compound was given intraperitoneally rather than coinjected.
Test solutions were prepared as follows: An 80 μg portion of PAF was dissolved in 40 ml of saline to yield a concentration of 2000 ng/ml. A 10 mg portion of histamine diphosphate was dissolved in 100 ml of saline to yield a concentration 100 μg/ml. Test compounds were dissolved in saline and given intraperitoneally (20 mg/kg) 1/2 hour before intradermal challenge with PAF or histamine.
The animals used were Hilltop ICR mice, shaved on their flanks one day before use. The mice were randomly assigned to treated and control groups and were given test compound or saline 1/2 hour before challenge. Each mouse was injected via a tail vein with 0.25 ml of 0.05% Evans' blue dye immediately before the PAF or histamine intradermal injections were made (0.05 ml each), one per side.
Thirty minutes later the animals were killed and the lesions areas measured as described above. Lesion areas in treated animals were expressed as a percent of the control lesions and an ED50 (mg/kg) was calculated from an arcsine area vs. log dose transform.

[3] = target: T1, PAF receptor; assay: Inhibition of PAF induced platelet aggregation in washed rabbit platelets; type: cell-based; design: In some experiments, washed platelets were used instead of PRP; endogenous in cells; host or cells: washed rabbit platelets
Experimental: as §1, §2, §3, §4, §5, §6, §7, §8, §9
In some experiments, washed platelets were used instead of PRP. Washed platelet suspensions were prepared as follows. PRP was centrifuged at 2800 rpm for 10 minutes to obtain PPP and a platelet pellet. The pellet was gently suspended and washed in calcium free, albumin free Tyrode's buffer, pH 6.3. The suspension was recentrifuged and the washed pellet was resuspended in normal Tyrodes', buffer (with calcium, but albumin free), pH 7.4. Platelet counts were adjusted to 500,00 platelets/μl.

[4] = system: PAF induced vascular permeability change in guinea pig skin
Description: Platelet Activating Factor (PAF) given intradermally, increases capillary permeability, and plasma proteins (e.g albumin) leak from the vascular space into the interstitial fluids of the skin. If the albumin has been previously stained with Evans' blue dye, the lesion area can be visualized as a blue spot in the .skin. A specific PAF antagonist inhibits the development of increased capillary permeability caused by PAF and reduces the leakage of proteins into the skin. Test compounds were evaluated for non-specific effects by monitoring their ability to inhibit or reduce a histamine induced increase in capillary permeability.
Test Solutions were prepared as follows: Evans' Blue Dye (Sigma E2129) was dissolved in saline to yield a 0.1% w/v solution. A 2 mg/ml stock chloroform solution of PAF (1-phosphotidyl, acetyl-O-alkyl; Sigma P9525) was diluted in saline to give final concentrations of 500 and 250 ng/ml. Saline dilutions were made fresh for each test. Histamine diphosphate solutions (Sigma H7375) were prepared by dissolving 10 mg in 100 ml of saline and diluting to 20 μg/ml with saline. Test compounds were dissolved in ethanol at 10 mg/ml and stored at -70° C. Injection mixtures were made by placing 10 μl of test compound solution into 1.0 ml of either the PAF solutions or the histamine solution.
The animals used were Hartley strain guinea pigs weighing 250-350 g, maintained with food and water ad libitum. The animals were shaved on their back and hind feet one day before use.
Each guinea pig was given an intravenous injection of 2 ml of Evans' blue dye solution into a foot vein. Immediately after, a series of six intradermal injections of 0.1 ml each were given, three on each side of the animal. They were: PAF 50 ng (0.1 ml of a 500 ng/ml solution); PAF 25 ng; and histamine diphosphate 2 μg. The left side injections contain 10 μg of test compound while the right side contain an equivalent amount of the ethanol vehicle to serve as a control.
Thirty minutes later the animals were killed by cervical dislocation and the skin reflected from the back. The lesion areas were approximated as the product of the largest diameter and normal diameter both in mm.

[5] = system: PAF induced lethality; assay: PAF induced lethality in the mouse; type: in vivo, mouse (ICR); details: ip, 1 h, mice, test compound i.p. 1/2 hour before PAF i.v., dose that protects 1/2 the animals, read-out: PAF induced Lethality PD50 (mg/kg I.P., 1/2 hour)
Experimental: PAF Induced Lethality in the Mouse
Test compounds were evaluated for their ability to prevent death induced by an intravenous injection of a lethal dose of PAF.
ICR mice were given test compounds intraperitoneally as described under Inhibition of PAF Induced Vascular Permeability Change in Mouse Skin, 1/2 hour before an intravenous dose of 100 μg/kg PAF in saline. One hour later the number of dead mice were recorded. Protection was expressed as percent survivors in treated group/percent survivors in control group.

**Q.** With `CCCCCCCCCCCCCCCCOCC(COP(=O)([O-])Oc1cccc(C[n+]2csc(C)c2)c1)OC` (stereo not drawn) [3-[[3-[[[3-(Hexadecyloxy)-2-methoxypropoxy]hydroxyphosphinyl]oxy]phenyl]methyl]-5-methylthiazolium, hydroxide, inner salt] as the molecule, how does the pKi [1] read?
**A.** Its pKi is 6.68.

**Q.** And the IC50 ([1]; PAF challenge 1E-6M)?
**A.** The IC50 was 1.2e-05 M.

**Q.** What about the IC50 ([1]; PAF challenge 1E-7M) of the same molecule?
**A.** Its IC50 is 7.1e-07 M.

**Q.** And the IC50 ([1]; PAF challenge 5E-8M)?
**A.** The IC50 was 8.2e-07 M.

**Q.** And the ED50 [2]?
**A.** Its ED50 is 4.8 mg/kg.

**Q.** And the pKi ([3]; calculated from IC50, [PAF] and EC50)?
**A.** Its pKi is 7.82.

**Q.** And the IC50 ([3]; challenge concentration of PAF 5E9M [sic])?
**A.** Its IC50 is 0.032 µM.

**Q.** What about the “Inhibition of Vascular Permeability Lesion (% of Control)” value [4] of the same molecule?
**A.** The value was 24 % of Control.

**Q.** What about the ED50 [5] of the same molecule?
**A.** The ED50 was under 1.25 mg/kg.
